Results published in patent publication US7910135B2, “Hydrogel wound dressing and biomaterials formed in situ and their uses” (ULURU Inc., priority 2006, dated 2011).

What was measured:
[1] = Release of lidocaine or erythromycin from nanoparticle aggregates in PBS; format: physicochemical; details: dry blended with pHEMA or HEMA/GMA copolymer powder, aggregate formed in PBS
From the text: Poly-HEMA nanoparticle powder and HEMA/GMA copolymer nanoparticle powders were dry blended with lidocaine or erythromycin powder and upon exposure to PBS, aggregates formed trapping the active between the particles comprising the aggregate.

metalloproteases = details: cited from earlier work

| SMILES | Change of release rate as the glycerol methacrylate comonomer is increased [1] | Effective concentration (metalloproteases) |
| --- | --- | --- |
| CCN(CC)CC(=O)Nc1c(C)cccc1C [lidocaine] | released at a slower rate |  |
| c1cnc2c(c1)ccc1cccnc12 [1,10 phenanthroline] |  | 0.1 mmol/L |
| CC[C@H]1OC(=O)[C@H](C)[C@@H](O[C@H]2C[C@@](C)(OC)[C@@H](O)[C@H](C)O2)[C@H](C)[C@@H](O[C@@H]2O[C@H](C)C[C@H](N(C)C)[C@H]2O)[C@](C)(O)C[C@@H](C)C(=O)[C@H](C)[C@@H](O)[C@]1(C)O [erythromycin] | increases |  |
